Source: ChEMBL document CHEMBL4831518, “Structure-aided optimization of non-nucleoside M. tuberculosis thymidylate kinase inhibitors” (Eur J Med Chem, 2021)
≈ marks a conversion by molar mass, not a printed value.

Key:
[1] = test system: Mycobacterium tuberculosis; assay: Antibacterial activity against Mycobacterium tuberculosis H37Rv harboring mmr deletion mutant assessed as inhibition of bacterial growth incubated for 6 hrs by microdilution assay; type: functional
[2] = test system: Mycobacterium tuberculosis; assay: Antibacterial activity against Mycobacterium tuberculosis H37Rv harboring Tap deletion mutant assessed as inhibition of bacterial growth incubated for 6 hrs by microdilution assay; type: functional

Row | Compound | MIC [1] | MIC [2]
1 | COc1ccc(Oc2cccc(CN3CCC(n4cc(C)c(=O)[nH]c4=O)CC3)c2)cc1 | 15.6 µg/mL (≈ 37 µM) | 31.25 µg/mL (≈ 74.1 µM)
2 | Cc1cn(C2CCN(Cc3cccc(Oc4cc(Cl)cc(Cl)c4)c3)CC2)c(=O)[nH]c1=O | 15.6 µg/mL (≈ 33.9 µM) | 15.6 µg/mL (≈ 33.9 µM)
3 | Cc1cn(C2CCN(Cc3cccc(Oc4ccccc4)n3)CC2)c(=O)[nH]c1=O | >250 µg/mL | >250 µg/mL
4 | Cc1cn(C2CCN(Cc3ccnc(Oc4cccc(Cl)c4)c3)CC2)c(=O)[nH]c1=O | 31.25 µg/mL (≈ 73.2 µM) | 31.25 µg/mL (≈ 73.2 µM)
5 | Cc1ccc(Oc2cccc(CN3CCC(n4cc(C)c(=O)[nH]c4=O)CC3)c2)cc1 | 15.6 µg/mL (≈ 38.5 µM) | 15.6 µg/mL (≈ 38.5 µM)
